{"source": "patent US20240277767A1", "about": "“METHODS AND USES” (PROLEUKOCYTE AB, priority 2021, published 2024)", "molecules": {"B1": {"name": "catalase: an enzyme efficiently converting H2O2 to H2O and O2 (protein, UniProt P04040 2-527, looked up)", "Catalase": "ADSRDPASDQMQHWKEQRAAQKADVLTTGAGNPVGDKLNVITVGPRGPLLVQDVVFTDEMAHFDRERIPERVVHAKGAGAFGYFEVTHDITKYSKAKVFEHIGKKTPIAVRFSTVAGESGSADTVRDPRGFAVKFYTEDGNWDLVGNNTPIFFIRDPILFPSFIHSQKRNPQTHLKDPDMVWDFWSLRPESLHQVSFLFSDRGIPDGHRHMNGYGSHTFKLVNANGEAVYCKFHYKTDQGIKNLSVEDAARLSQEDPDYGIRDLFNAIATGKYPSWTFYIQVMTFNQAETFPFNPFDLTKVWPHKDYPLIPVGKLVLNRNPVNYFAEVEQIAFDPSNMPPGIEASPDKMLQGRLFAYPDTHRHRLGPNYLHIPVNCPYRARVANYQRDGPMCMQDNQGGAPNYYPNSFGAPEQQPSALEHSIQYSGEVRRFNTANDDNVTQVRAFYVNVLNEEQRKRLCENIAGHLKDAQIFIQKKAVKNFTEVHPDYGSHIQALLDKYNAEKPKNAIHTFVQSGSHLAAREKANL"}}, "assay_type_in_all_cases": "cell-based, human", "key": {"[1]": {"system": "NK cells", "assay": "[Cr51]-release assay: lysis of tumour target cells by pre-treated NK cells after H2O2 exposure", "settings": "for Lysis of K562 target cells by pre-treated NK cells after H2O2 exposure: 18 h pre-treatment, H2O2 1 h up to 250 μM, E:T 9:1, vs control NK cells; for Suppressive effect of H2O2 on lymphocyte function (killing, degranulation, IFNγ): expanded NK cells and patient derived TIL, pre-treatment; for Dependence of the protective effect on Nrf2 activation: qPCR of Nrf2 target genes and K562 lysis with/without Nrf2 inhibitor ML385", "excerpt": "Peripheral blood samples (anonymized by-products of blood donations from healthy adult donors) were purchased from Karolinska University Hospital Blood Bank. Peripheral blood mononuclear cells (PBMC) were isolated from healthy donor buffy coats using density centrifugation with Ficoll® Paque Plus (GE Healthcare). NK cells and CD14^+ monocytes were isolated from PBMCs using NK cell isolation kit or CD14^+ microbeads, respectively (both Miltenyi Biotec), following the manufacturer's instructions. For NK cell expansion, a EBV-LCL feeder cell line was used, irradiated at 100 gy and then co-cultured with NK cells, at the ratio 10:1 LCL:NK, in X-Vivo 20 (Lonza) supplemented with 10% human AB serum and 1000 U/mL IL-2 (Proleukin). From day 6 or 10, NK cells were kept at 0.5×10^6 cells/mL or 1×10^6/mL, respectively. Purity of expanded NK cell was assessed at day 10 by flow cytometry, see below.\nLymphocytes were pre-treated for 18 h with Auranofin (AUF, with the concentration 1 μg/mL for NK cells and 0.5 μg/mL for TIL, if not indicated differently), DL-Sulforaphane (SUL) or Dimethyl Fumarate (DMF) (all Sigma-Aldrich) at indicated concentrations.\n(§1) For Nrf2 inhibition, NK cells were treated with 50 μM ML-385 (Sigma-Aldrich) in parallel. For H2O2 treatment, lymphocyte cells were washed and resuspended to 1×10^6 cells/mL in medium and exposed to indicated H2O2 (Sigma-Aldrich) concentration for 1 h at 37° C. Cells were washed with medium and then used for further experiments. For monocyte experiments, autologous NK cell-monocytes or TIL-monocytes were used. NK cells/TIL were isolated and pre-treated with 0.5 μg/mL AUF, as described above, and co-cultured with unstimulated at the ratio, 1:2 M:NK, or stimulated monocytes at the ratio, 1:1 M:NK, if not indicated otherwise. Stimulated monocytes were activated with 100 ng/ml PMA for 1 min, washed and added at indicated ratio, the number of NK cell/TIL was kept constant. As control, H2O2 was used at indicated concentration. Cells were co-cultured for 2 h and then effector cells were stained for intracellular ROS (see flow cytometry) or used as effector cells in Cr^51 release assay (E:T ratio 10:1).\n(§2) For cytotoxic assay, a standard 4 h [Cr^51]-release assay was used. Briefly, tumour cells were harvested and labeled with 51Cr (PerkinElmer) and used as target cells. Effector cells, NK cells and T cells, were co-cultured in 96-well V-bottom plate with indicated tumour cells at the stated effector target ratio (E:T). The supernatant was collected onto LUMA plates (Perkin-Elmer) and radioactivity/tumour cell lysis was detected by MicroBeta2 (Perkin Elmer). Target cell killing measured by % specific lysis and calculated using the formula: ((experimental release-spontaneous release)/(maximum release-spontaneous release))*100.\nLymphocytes were pre-treated for 18 h with Auranofin (AUF, with the concentration 1 μg/mL for NK cells and 0.5 μg/mL for TIL. As AUF was reconstituted in DMSO, control NK cells were pre-treated with DMSO with an equivalent volume to the highest compound concentration. For N-acetylcysteine (NAC, Invitrogen) treatment, DMSO pre-treated cells were incubated for 1 h with 5 or 10 mM NAC prior to H2O2 treatment. For H2O2 treatment, lymphocytes were washed and resuspended to 1×10^6 cells/mL in RPMI containing the indicated H2O2 (Sigma-Aldrich) concentration for 1 h at 37° C. 5% CO2. Cells were washed with medium and then used for further experiments."}, "[2]": {"system": "Nrf2 target genes (NQO1, HMOX1, TXNRD1, Keap1)", "assay": "qPCR of classical Nrf2 target genes in NK cells", "settings": "kinetic, fold change vs untreated", "protocol": "Lymphocytes were pre-treated with AUF, SUL or DMF as described above. RNA was isolated using TRIzol™ Plus RNA Purification Kit (Invitrogen). cDNA was generated using the iScript™ cDNA Synthesis Kit (Bio-Rad) and qPCR was done using iTaq™ Universal SYBR® Green Supermix (Bio-Rad) in the CFX96 Touch Real-Time PCR Detection System (Bio-Rad). Fold change expression from untreated cells was calculated using the 2^-ΔΔCt formula with b-actin as reference gene. Evaluated genes were NAD(P)H Quinone Dehydrogenase 1 (NQO1), Kelch Like ECH Associated Protein 1 (Keap1), Heme Oxygenase 1 (HMOX1) and Thioredoxin Reductase 1 (TXNRD1)."}, "[3]": {"system": "tumour infiltrating lymphocytes (TIL)", "assay": "IFNγ release by pre-treated TIL on autologous tumour cells after H2O2 treatment", "settings": "KADA and ANRU melanoma TIL, E:T 4:1, vs control group", "protocol": "., 2020). […] For Nrf2 inhibition, NK cells were treated with 50 μM ML-385 (Sigma-Aldrich) in parallel. […] Cells were washed with medium and then used for further experiments. For monocyte experiments, autologous NK cell-monocytes or TIL-monocytes were used. […] Stimulated monocytes were activated with 100 ng/ml PMA for 1 min, washed and added at indicated ratio, the number of NK cell/TIL was kept constant. […] For cytokine release assay, NK cells and TIL were cultured with indicated tumour cells at the effector target ratio 4:1 (E:T) for 24 h in U-bottom plates. IFNγ secretion was measured using human IFN-γ ELISA development kit (Mabtech) following the manufacturer's instructions."}, "[4]": {"system": "NK cells", "assay": "ADCC: NK cells with RAJI cells coated with Rituximab or Ofatumumab", "settings": "Rituximab 0.5 μg/mL or Ofatumumab 0.05 μg/mL, E:T 9:1", "protocol": "Lymphocytes were isolated and pre-treated when indicated, with compound and H2O2, as described above. For degranulation/measuring CD107a expression, NK cells were co-cultured with K562 tumour cells at an effector target ratio 1:1 in the presence of anti-CD107a in U-bottom plates. After 2 h, GolgiStop™ and GolgiPlug™ (BD Bioscience) were added and cells were harvested after an additional 4 h co-culture and stained for CD56 and CD3, as described above. For positive control, 25 ng/ml PMA (Sigma Aldrich) and 500 ng/mL Ionomycin (Sigma Aldrich) were added.\nas §2\nFor analyzing ADCC, NK cells were cultured with RAJI cells and Rituximab (0.5 μg/mL, MabThera, Roche) or Ofatumumab (0.05 μg/mL, Arzerra, Novartis)."}, "[5]": {"system": "NK cells", "assay": "NK cells co-cultured with PMA-activated autologous monocytes: intracellular ROS and K562 lysis", "settings": "100 U/mL catalase; intracellular ROS and K562 lysis", "protocol": "as §1\nMonocytes were stimulated with 100 ng/ml PMA for 1 min and washed with HBSS (Gibco). Cells were resuspended in HBSS 5% FBS and added to a 96-well Optiplate (Perkin Elmer) containing HBSS 5% FBS and Luminol (56 μM; Sigma). Luminescence was measured immediately using a EnSpire plate reader (Perkin Elmer).\nFor detection of intracellular ROS levels, for NK cells CellROX™ Deep Red Reagent (Invitrogen) were used. Briefly, NK cells were stained with 2.5 μM CellROX solution in RPMI for 30 min at 37° C. and then stained for flow cytometry with anti-CD56 and anti-CD3 (both Biolegend).\nas §2"}}}
{"molecule": "C[S+]([O-])CCCCN=C=S", "note": "(racemic) [SUL, 1-Isothiocyanato-4-(methanesulfinyl)butane]", "values": [{"measurement": "Lysis of K562 target cells by pre-treated NK cells after H2O2 exposure", "setting": "[1]", "value": "comparable protective effects as AUF"}, {"measurement": "Suppressive effect of H2O2 on lymphocyte function (killing, degranulation, IFNγ)", "setting": "[1]", "value": "counteracts the suppressive effect of H2O2 on lymphocyte function"}, {"measurement": "Dependence of the protective effect on Nrf2 activation", "setting": "[1]", "value": "dependent on Nrf2 activation"}, {"measurement": "Influence on Nrf2 target genes in NK cells compared with AUF", "setting": "[2]", "value": "comparable influence"}, {"measurement": "Recognition of autologous tumour cells by TIL (IFNγ production) upon exposure to H2O2", "setting": "[3]", "value": "increased recognition of their autologous tumour cells"}]}
{"molecule": "COC(=O)/C=C/C(=O)OC", "note": "[DMF, Dimethyl (E)-butenedioate]", "values": [{"measurement": "Lysis of K562 target cells by pre-treated NK cells after H2O2 exposure", "setting": "[1]", "value": "comparable protective effects as AUF"}, {"measurement": "Suppressive effect of H2O2 on lymphocyte function (killing, degranulation, IFNγ)", "setting": "[1]", "value": "counteracts the suppressive effect of H2O2 on lymphocyte function"}, {"measurement": "Dependence of the protective effect on Nrf2 activation", "setting": "[1]", "value": "dependent on Nrf2 activation"}, {"measurement": "Influence on Nrf2 target genes in NK cells compared with AUF", "setting": "[2]", "value": "comparable influence"}, {"measurement": "Recognition of autologous tumour cells by TIL (IFNγ production) upon exposure to H2O2", "setting": "[3]", "value": "increased recognition of their autologous tumour cells"}]}
{"molecule": "Cc1ccccc1C(=O)N1CCc2cc(-c3nc(NC(=O)Cc4ccc5c(c4)OCO5)sc3C)ccc21", "note": "[ML385]", "values": [{"measurement": "Effect of ML385 on K562 lysis by DMSO pre-treated control NK cells", "setting": "[1]; 50 μM ML385", "value": "no effects"}, {"measurement": "Lysis of K562 by NK cells pre-treated with AUF, SUL or DMF in combination with ML385", "setting": "[1]; 50 μM ML385, cells exposed to H2O2", "value": "significantly reduced"}]}
{"molecule": "CC(=O)N[C@@H](CS)C(=O)O", "note": "[NAC, N-acetylcysteine]", "values": [{"measurement": "Protection of K562 lysis by control NK cells pre-treated with NAC, compared to AUF", "setting": "[1]; 1 h, 5 or 10 mM NAC, increased H2O2 concentrations", "value": "less protection"}]}
{"molecule": "Ofatumumab: antibody therapy targeting CD20", "values": [{"measurement": "Recognition of antibody-coated RAJI cells by NK cells (killing and CD107a degranulation)", "setting": "[4]", "value": "efficient recognition of the target cells"}]}
{"molecule": "Rituximab: antibody therapy targeting CD20", "values": [{"measurement": "Recognition of antibody-coated RAJI cells by NK cells (killing and CD107a degranulation)", "setting": "[4]", "value": "efficient recognition of the target cells"}]}
{"molecule": "B1", "values": [{"measurement": "Lysis of K562 target cells by control NK cells with catalase added before H2O2", "setting": "[1]; catalase added to control NK cells before incubation with H2O2", "value": "improve the function of the control NK cells in a comparable way to AUF pre-treatment"}, {"measurement": "Difference between activated monocytes or H2O2 treated control NK cells in the presence of catalase", "setting": "[5]", "value": "no difference"}]}
